Data: patent US10576086B2, “Triazine derivatives as interferon-gamma inhibitors” (University of Greenwich, priority 2015, dated 2020)
Where two headings read alike, the source gives them in different places.

Assays:
[1] = tested on: IFN-γ production in human peripheral blood mononuclear cells (PBMCs); test: Experiment 2: IFN-γ production by PHA-stimulated human PBMCs, ELISA; type: cell-based; settings: for [IFN-γ]: PHA 5 μg/ml; for inhibition of IFN-γ production in PBMCs (in words): Experiment 2, human PBMCs; for IC50: human PBMCs, PHA-stimulated, read-out: IC50 (concentration to inhibit IFN-γ production by 50%)
Protocol: A similar set of tests were carried out, in which three compounds known as CEN-079(3,5-diamino-6-[2-(3,4,5-trichlorothienyl)]-1,2,4-triazine), CEN-092(3,5-diamino-6-(3,5-bistrifluoromethylphenyl)-1,2,4-triazine) and CEN-216(3,5-diamino-6-(2,3-dichlorophenyl)-2,3(2,5)-dihydro-3(5)-imino-2-(2,2,2-trichloroethyl)-1,2,4-triazine) were compared with lamotrigine. CEN-079, CEN-092 and CEN-216 are within the scope of Formulae 1, 2 and 3.
50 ml of blood from three healthy adult donors was collected by venepuncture in heparinised tubes. The blood samples where centrifuged at 3000 rpm for 15 minutes. The supernatant plasma was collected in a centrifuge tube, and centrifuged at 3000 rpm for a further 10 minutes. The supernatant was then collected in a plain tube, and stored at −70° C. for future use.
The cells from the first centrifuged heparinised tube were diluted 1:1 in RPMI-1640, and mixed by multiple inversions. The cell mixture was then slowly layered, using a sterile plastic 3 ml pipette, along a tube wall containing lymphoprep (Nycomed) at a ratio of 2:1 cells/RPMI-1640:Lymphoprep in a 25 ml universal tube. The mixture was centrifuged at 2400 rpm for 30 minutes, and left to stand for 20 minutes. PBMCs were slowly removed from the interface using a sterile plastic pipette, and collected in a 15 ml centrifuge tube.
The cells were washed twice by diluting in RPMI-1640 with 2 mM L-glutamine, 100 U/ml penicillin and 100 μg/ml streptomycin at a ratio of 1:1. The mixture was centrifuged at 3000 rpm for 15 minutes, and the supernatant decanted. PBMCs were then diluted in RPMI-1640 containing 2 mM L-glutamine, 100 U/ml penicillin and 100 μg streptomycin, to make up a volume of 6 ml for subjects 1 and 2, and 9 ml for subject 3.
Cells were counted using an Improved Neubauer haemocytometer (Hawksley, UK) on a light microscope. 10 μl of cell suspension was loaded onto the haemocytometer using a sterile plastic pipette. Cells were counted in five out of 25 1 mm squares, from which the total cell count was calculated.
5 μg/ml PHA was used as a T cell activating agent for the production of IFN-γ. The PBMCs were treated with the four test compounds (lamotrigine, CEN-079, CEN-092, CEN-216) at concentrations of 10 μM, 30 μM and 300 μM to assess their effects on IFN-γ production by the stimulated T cells.
The tests were carried out as for Experiment 1, in which 2×10^6 PBMC/ml, 25 μl of 5% autologous plasma, and 2.63 μl of 5 μg/ml PHA were used. Test compound at each concentration was then added, except for one control case.
10 μM solutions were obtained by adding 1.05 μl of a 5 mM solution of the compounds to the above PBMC-containing solution. 30 μM solutions were obtained by adding 3.15 μl of the 5 mM solution of the compounds. 300 μM solutions were obtained by adding […] solutions of the compounds.
The tubes were covered, gently shaken to mix the contents, and incubated for 24 hours at 37° C. The tubes were then centrifuged at 2500 rpm for 10 minutes. The supernatant was collected in a 3 ml plastic pipette, and aliquots were stored at −70° C. before being analysed.
The test was performed according to the supplier's instructions. Donor samples were diluted 1:1 in phosphate buffered […] (PBS) and assayed simultaneously with IFN-γ standard samples, in duplicate. The standard curve ranged from 15.6 pg/ml to 1000 pg/ml.
A 96-well multiwell microplate (high binding Costar) was prepared, by diluting a capture antibody (720 μg/ml of mouse anti-human IFN-γ) in PBS to a working concentration of 4.0 μg/ml. 100 μl was immediately coated on each well, and left overnight at room temperature. The wells were washed three times in wash buffer, using microplate autowasher (LT-3000, LabTech International Ltd). The remainder of the wash buffer in the wells was removed by blotting on to clean paper towels. The plate was blocked by adding 300 μl Block buffer (1% BSA in PBS) to each well and incubated at room temperature for 1 hour. […]

[2] = tested on: IFN-γ production in human peripheral blood mononuclear cells (PBMCs); test: Experiment 1: IFN-γ production by PHA-stimulated human PBMCs, ELISA; type: cell-based; settings: for IFN-γ Concentration, Mean: mean of first three subjects, 24 h
Protocol: The ex vivo activity of various compounds towards suppression of IFN-γ production in human peripheral blood mononuclear cells (PBMCs) was studied.
[…] They were not taking any other prescribed medication that could interfere with the results.
The blood was transferred into 50 ml centrifuge tubes (Corning, USA) containing heparin sodium salt 37.5 mg heparin powder diluted in 300-500 μl phosphate buffered saline (PBS) for 50 ml blood), and centrifuged at 2000 rpm for 10 minutes, and the plasma portion was separated. The plasma was further centrifuged at 3000 rpm for 10 minutes, and the supernatant separated and kept for later use.
The blood cells from the initial centrifugation were diluted with an equal volume of RPMI-1640 (Sigma, UK), and layered (2:1) onto Lymphoprep (Axis-Shield, Norway) in 25 ml universal tubes (Bibby Sterilin, UK) for density gradient centrifugation at 2500 rpm for 30 minutes.
PBMCs (lymphocytes and monocytes) were then removed from the interface, diluted in an equal volume of RPMI-1640 and washed twice by centrifugation at 3000 rpm for 10 minutes.
For testing, the PBMCs were re-suspended in a known volume of culture medium containing RPMI-1640 supplemented with 2 mM L-glutamine, 100 U penicillin, and 100 μg streptomycin (Sigma, UK).
The cell count was determined by the use of a haemocytometer using 10 μl of the cell suspension. The number of cells was determined based on a count in 5 random 1 mm squares.
The cell solution was then diluted with the supplemented RPMI-1640 medium to ensure a cell count of 2×10^6 cells/ml.
The PBMC suspension was added to tissue culture tubes (Bibby Sterilin, UK) with 5% autologous plasma, 5 μg/mlphytohaemaglutinin (PHA) to stimulate T-lymphocyte IFN-γ production, and a solution containing various concentrations of the compound to be studied. A control containing no compound was also cultured for each subject.
In the case of lamotrigine, the isethionate salt was used, and diluted with RPMI-1640 to produce 100 μM, 30 μM, 10 μM and 3 μM solutions that were tested on PBMCs from the first three subjects. With PBMC's from the other two subjects, a 300 μM solution was also tested.
For sipatrigine, the mesylate salt was used, and diluted with RPMI-1640 to produce 30 μM, 10 μM, 3 μM and 1 μM solutions. It was tested on PBMCs from the first three subjects only.
The tubes were incubated at 37° C. for 24 hours under a 5% CO2 atmosphere. After incubation, the cells (>75% viable according to trypan blue test) were centrifuged at 3000 prm for 10 minutes, and the cell-free supernatants were collected and stored at −70° C. before analysis for IFN-γ.
Levels of IFN-γ produced by the PBMCs were determined by the DuoSet ELISA Development system for human IFN-γ (RD Systems, UK), with a sensitivity of 15.6-1000 pg/ml.
Capture antibody, detection antibody, standard and streptavidin-HRP (streptavidin conjugated to horseradish peroxidase) were provided. A 96-well microtitre plate (Corning CoStar, flat bottom, polystyrene, high binding microtitre plate, UK) was coated with 100 μl per well of capture antibody (mouse anti-human IFN-γ at 4.0 μg/ml), sealed and incubated overnight. Unbound capture antibody was washed from the wells three times, using a wash buffer (0.05% Tween 20 in PBS). Block buffer (1% bovine serum albumin (BSA) in PBS) was then added. After incubation for 1 hour, the wells were washed, and sample culture supernatants or standards were added. A 7-point standard curve (in the range 15.6-1000 pg/ml) was produced from […] recombinant human IFN-γ using 2-fold serial dilutions in reagent diluent (0.1% BSA, 0.05% Tween 20 in tris-buffered saline (20 mM Trizma base, 150 mM NaCl)). The sealed plates were left to incubate for 2 hours.
After further washing, the detection antibody (biotinylated goat anti-human IFN-γ at 175 ng/ml) was added, and the plates sealed and incubated for a further 2 hours. […]

Structure (SMILES)	[IFN-γ] vs control ([1]; 10 μM, Subject 1, 24 h)	[IFN-γ] ([1]; 10 μM, Subject 1, 24 h)	[IFN-γ] vs control ([1]; 10 μM, Subject 2, 24 h)	[IFN-γ] ([1]; 10 μM, Subject 2, 24 h)	[IFN-γ] vs control ([1]; 10 μM, Subject 3, 24 h)	[IFN-γ] ([1]; 10 μM, Subject 3, 24 h)	[IFN-γ] vs control ([1]; 30 μM, Subject 1, 24 h)	[IFN-γ] ([1]; 30 μM, Subject 1, 24 h)	[IFN-γ] vs control ([1]; 30 μM, Subject 2, 24 h)	[IFN-γ] ([1]; 30 μM, Subject 2, 24 h)	[IFN-γ] vs control ([1]; 30 μM, Subject 3, 24 h)	[IFN-γ] ([1]; 30 μM, Subject 3, 24 h)	[IFN-γ] vs control ([1]; 300 μM, Subject 1, 24 h)	[IFN-γ] ([1]; 300 μM, Subject 1, 24 h)	[IFN-γ] vs control ([1]; 300 μM, Subject 2, 24 h)	[IFN-γ] ([1]; 300 μM, Subject 2, 24 h)	[IFN-γ] vs control ([1]; 300 μM, Subject 3, 24 h)	[IFN-γ] ([1]; 300 μM, Subject 3, 24 h)	inhibition of IFN-γ production in PBMCs (in words) [1]	also measured
Nc1nnc(-c2sc(Cl)c(Cl)c2Cl)c(N)n1 [CEN-079, 3,5-diamino-6-[2-(3,4,5-trichlorothienyl)]-1,2,4-triazine]	22.1%	154.5 pg/mL	36.9%	757.5 pg/mL	28.7%	611.5 pg/mL	7.60%	53 pg/mL	1.80%	178.5 pg/mL	2.0%	41.5 pg/mL	0.0%	0.00 pg/mL	0.0%	0.0 pg/mL	0.0%	0.0 pg/mL	significantly more effective inhibitors compared to lamotrigine	IC50 [1]: 6 µM
Nc1nnc(-c2cc(C(F)(F)F)cc(C(F)(F)F)c2)c(N)n1 [CEN-092, 3,5-diamino-6-(3,5-bistrifluoromethylphenyl)-1,2,4-triazine]	16.1%	112.5 pg/mL	36.0%	728.5 pg/mL	19.9%	423.5 pg/mL	7.4%	52.0 pg/mL	24.6%	499.0 pg/mL	4.3%	91.5 pg/mL	0.0%	0.00 pg/mL	0.0%	0.0 pg/mL	6.9%	146.0 pg/mL	significantly more effective inhibitors compared to lamotrigine	IC50 ([1]; PBMC): 3 µM
N=c1nc(N)c(-c2cccc(Cl)c2Cl)nn1CC(Cl)(Cl)Cl [CEN-216, 5(3)-Amino-6-(2,3-dichlorophenyl)-2,3(2,5)-dihydro-3(5)-imino-2-(2,2,2-trichloroethyl)-1,2,4-triazine]	0.0%	0.00 pg/mL	9.2%	187.0 pg/mL	3.9%	82.0 pg/mL	0.0%	0.00 pg/mL	2.9%	59.0 pg/mL	5.7%	122.0 pg/mL	0.0%	0.00 pg/mL	0.0%	0.0 pg/mL	0.0%	0.0 pg/mL	significantly more effective inhibitors compared to lamotrigine	
CN1CCN(c2ncc(-c3cc(Cl)cc(Cl)c3Cl)c(N)n2)CC1 [Sipatrigine, 4-amino-2-(4-methyl-1-piperazinyl)-(2,3,5-trichlorophenyl)-pyrimidine]																				IFN-γ Concentration, Mean ([2]; 1 μM): 1275.07 pg/mL; IFN-γ Concentration, Mean ([2]; 3 μM): 1227.27 pg/mL; IFN-γ Concentration, Mean ([2]; 10 μM): 1331.70 pg/mL; IFN-γ Concentration, Mean ([2]; 30 μM): 892.89 pg/mL; inhibition of IFN-γ production (in words) ([2]; Experiment 1, human PBMCs): did not inhibit IFN-γ production
